We go through two compounds from publication PMC3306375, “A Unique Modification of the Eukaryotic Initiation Factor 5A Shows the Presence of the Complete Hypusine Pathway in Leishmania donovani” (PLoS ONE, 2012).

The target in assay [1] is T1, LdDOHH (recombinant L. donovani deoxyhypusine hydroxylase) (Leishmania donovani, UniProt D9IFD5).
T1 construct: gene DOHH; full length, 326 aa (981 bp ORF, ~36 kDa), pET30a EcoRI-HindIII, 6xHis tag printed as C-terminal (~6 kDa, kept), ~42 kDa, E. coli BL21(DE3), Ni-NTA
T1 sequence (D9IFD5 1-326): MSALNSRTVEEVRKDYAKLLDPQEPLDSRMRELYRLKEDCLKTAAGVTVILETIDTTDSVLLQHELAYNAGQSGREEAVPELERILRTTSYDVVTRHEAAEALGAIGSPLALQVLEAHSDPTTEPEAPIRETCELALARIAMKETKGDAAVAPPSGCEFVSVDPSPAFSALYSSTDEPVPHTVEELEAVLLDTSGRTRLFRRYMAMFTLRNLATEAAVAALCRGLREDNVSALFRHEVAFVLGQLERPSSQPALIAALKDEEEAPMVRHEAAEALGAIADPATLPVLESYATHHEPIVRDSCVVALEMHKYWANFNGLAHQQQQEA
Nature of the assay: [3H]hypusine release assay (periodate oxidation), Hill fit. Format: biochemical. Particulars: read-out: concentration that inhibited 50% of activity.

The target in assay [2] is T2, hDOHH (recombinant human deoxyhypusine hydroxylase) (Homo sapiens, UniProt Q9BU89).
T2 construct: gene DOHH; hDOHH-pGEX-4T-3, E. coli BL21, GST tag removed with thrombin
T2 sequence (Q9BU89 1-302): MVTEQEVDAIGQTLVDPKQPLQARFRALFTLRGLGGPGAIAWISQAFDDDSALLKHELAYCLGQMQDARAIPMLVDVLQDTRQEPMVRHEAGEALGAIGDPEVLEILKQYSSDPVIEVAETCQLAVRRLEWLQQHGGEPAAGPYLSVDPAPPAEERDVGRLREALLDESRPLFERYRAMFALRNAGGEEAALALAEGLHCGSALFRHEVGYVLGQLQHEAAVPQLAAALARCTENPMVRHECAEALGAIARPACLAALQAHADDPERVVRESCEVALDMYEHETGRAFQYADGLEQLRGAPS
Put plainly: [3H]hypusine release assay (periodate oxidation). The class given is biochemical.

What is called inhibition is the change of the read-out against control, counted positive when it falls.

The structures appear in SMILES notation.

Take `Cc1cc(C2CCCCC2)n(O)c(=O)c1` [ciclopirox olamine]: the IC50 in assay [1] is 13.6 µM. For the same compound, the inhibition at 15 µM in assay [2] was about 32%.
Consider `N[C@@H](Cn1ccc(=O)c(O)c1)C(=O)O` [mimosine], for which the IC50 in assay [1] is 13 µM. The inhibition at 15 µM in assay [2] was about 22%.
